From publication PMC10044120, “Potent and selective covalent inhibition of the papain-like protease from SARS-CoV-2” (Nature Communications, 2023)
Values joined by “and” are separate entries in the source; they are usually repeats but may differ in a detail not shown here. Identical values can stand only once. Like-named read-outs stand apart in the source and are kept apart here.

Legend:
Vero E6 cells = conditions: African green monkey, 48 h
[1] = test system: SARS-CoV-2 isolate USA-WA1/2020; assay: microbe, parasite or virus in culture; conditions: for inhibition at 2.08 µM: Severe acute respiratory syndrome coronavirus 2, Vero C1008, read-out: cytopathic effect, % cell viability, [inhibitor] 2.08 uM
PLpro = PLpro (Severe acute respiratory syndrome coronavirus 2, UniProt P0DTD1); assay: Intact protein ESI-MS to assess covalent adduct formation; format: binding, SARS-CoV-2; design: unit not given here
PLpro from SARS-CoV-2 [2] = molecular target: T1, PLpro from SARS-CoV-2 (Severe acute respiratory syndrome coronavirus 2, UniProt P0DTD1); assay: biochemical; format: biochemical; conditions: for remaining activity at 0.06 µM: inhibitor 0.06 uM; for remaining activity at 0.2 µM: inhibitor 0.20 uM; for IC50: after 30-min incubation
PLpro from SARS-CoV-2 [3] = molecular target: T1, PLpro from SARS-CoV-2; assay: biochemical; format: biochemical; design: mean (kobs plot, Supplementary Figure 6 II): unit: min^-1
[4] = test system: SARS-CoV-2 isolate USA-WA1/2020; conditions: read-out: cytopathic effect, % cell viability, duplicate wells
in vitro = conditions: African green monkey, cytotoxicity, %cell viability
[5] = Metabolic stability in mouse liver microsomes; conditions: CD-1, mouse
[6] = Metabolic stability in rat liver microsomes; conditions: Sprague-Dawley
[7] = Metabolic stability in human liver microsomes
[8] = Metabolic stability in human liver S9 fraction
[9] = Metabolic stability in mouse liver S9 fraction; conditions: CD-1, mouse
[10] = test system: viral replication in Vero E6 cells; conditions: cited from earlier work
[11] = Metabolic stability in rat liver S9 fraction; conditions: Sprague-Dawley

SMILES: COC(=O)/C=C/C(=O)NNC(=O)CCc1ccc(NC(C)=O)cc1C(=O)N[C@H](C)c1cccc2ccccc12 [Compound 8, methyl-(R,E)-4-(2-(3-(4-acetamido-2-((1-(naphthalen-1-yl)ethyl)carbamoyl)phenyl)propanoyl)hydrazineyl)-4-oxobut-2-enoate]
- cytotoxicity, %cell viability (Vero E6 cells; 2.08 µM): 78.830%
- cytotoxicity, %cell viability (Vero E6 cells; 8.33 µM): 82.620%
- cytotoxicity, %cell viability (Vero E6 cells; 16.67 µM): 76.260%
- cytotoxicity, %cell viability (Vero E6 cells; 33.33 µM): 75.370%
- inhibition at 2.08 µM ([1]; duplicate wells): 1.22%
- inhibition at 8.33 µM ([1]; Severe acute respiratory syndrome coronavirus 2, Vero C1008, read-out: cytopathic effect, % cell viability, [inhibitor] 8.33 uM, duplicate wells): 4.63%
- Measured adduct mass (PLpro): 531
- remaining activity at 0.06 µM (PLpro from SARS-CoV-2 [2]; 0.5 h): 89.5%
- remaining activity at 0.2 µM (PLpro from SARS-CoV-2 [2]; 0.5 h): 57.8%
- IC50 (PLpro from SARS-CoV-2 [2]): 0.23 µM
- kinact/KI (PLpro from SARS-CoV-2 [3]): 9000 M⁻¹ s⁻¹
- remaining activity at 0.1 µM (PLpro from SARS-CoV-2 [3]; 5 min, read-out: PLpro activity after preincubation, inhibitor 0.1 uM, preincubation 5 min): 79.5%
- remaining activity at 0.1 µM (PLpro from SARS-CoV-2 [3]; 10 min, read-out: PLpro activity after preincubation, inhibitor 0.1 uM, preincubation 10 min): 71.5%
- remaining activity at 0.1 µM (PLpro from SARS-CoV-2 [3]; 0.5 h, read-out: PLpro activity after preincubation, inhibitor 0.1 uM, preincubation 30 min): 66.2%
- remaining activity at 0.1 µM (PLpro from SARS-CoV-2 [3]; 1 h, read-out: PLpro activity after preincubation, inhibitor 0.1 uM, preincubation 60 min): 64.4%
- remaining activity at 0.2 µM (PLpro from SARS-CoV-2 [3]; 1 h, read-out: PLpro activity after preincubation, inhibitor 0.2 uM, preincubation 60 min): 12.6%
- remaining activity at 0.1 µM (PLpro from SARS-CoV-2 [3]; […], read-out: PLpro activity after preincubation, inhibitor 0.1 uM, preincubation 15 min): 66.3%
- remaining activity at 0.1 µM (PLpro from SARS-CoV-2 [3]; […], read-out: PLpro activity after preincubation, inhibitor 0.1 uM, preincubation 45 min): 72.5%
- remaining activity at 0.1 µM (PLpro from SARS-CoV-2 [3]; […], read-out: PLpro activity after preincubation, inhibitor 0.1 uM, preincubation 90 min): 44.6%
- Time dep. (time-dependent inhibition) (PLpro from SARS-CoV-2 [3]; fluorogenic peptide assay, varied preincubation time): Yes
- mean (kobs plot, Supplementary Figure 6 II) (PLpro from SARS-CoV-2 [3]; inhibitor 0.10 uM): 0.0091
- mean (kobs plot, Supplementary Figure 6 II) (PLpro from SARS-CoV-2 [3]; inhibitor 0.20 uM): 0.0652
- inhibition ([4]; [inhibitor] 2.08 uM, 2.08 µM): 0.9%
- inhibition ([4]; [inhibitor] 8.33 uM, 8.33 µM): 2.82%
- viability at 48 h, 2.08 µM (in vitro): 83.7%
- viability at 48 h, 8.33 µM (in vitro): 87.2%
- viability at 48 h, 16.67 µM (in vitro): 82.6%
- viability at 48 h, 33.33 µM (in vitro): 75.6%

SMILES: Cc1ccccc1C(=O)N[C@H](C)c1cccc2ccccc12 [Compound 14, (R)-2-methyl-N-(1-(naphthalen-1-yl)ethyl)benzamide]
- half-life [5]: 16 min
- microsomal CLint [5]: 435 µL/min/mg
- cytotoxicity, %cell viability (Vero E6 cells; 2.08 µM): 96.55%
- cytotoxicity, %cell viability (Vero E6 cells; 8.33 µM): 99.10%
- cytotoxicity, %cell viability (Vero E6 cells; 16.65 µM): 92.38%
- inhibition at […] ([1]; Severe acute respiratory syndrome coronavirus 2, Vero C1008, read-out: cytopathic effect, % cell viability): 7.92% and 10.7%
- inhibition at 2.08 µM ([1]; duplicate wells): 11.3%
- inhibition at 16.65 µM ([1]; Severe acute respiratory syndrome coronavirus 2, Vero C1008, read-out: cytopathic effect, % cell viability, [inhibitor] 16.65 uM, duplicate wells): 7.05%
- half-life [6]: 21 min
- microsomal CLint [6]: 330 µL/min/mg
- remaining activity at 0.02 µM (PLpro from SARS-CoV-2 [2]; 0.5 h, inhibitor 0.02 uM): 96.3%
- remaining activity at 0.06 µM (PLpro from SARS-CoV-2 [2]; 0.5 h): 94.2%
- remaining activity at 0.2 µM (PLpro from SARS-CoV-2 [2]; 0.5 h): 103%
- remaining activity at 2.01 µM (PLpro from SARS-CoV-2 [2]; 0.5 h, inhibitor 2.01 uM): 90.5%
- remaining activity at 6.34 µM (PLpro from SARS-CoV-2 [2]; 0.5 h, inhibitor 6.34 uM): 77.4%
- remaining activity at 20 µM (PLpro from SARS-CoV-2 [2]; 0.5 h, inhibitor 20.00 uM): 56.2%
- remaining activity at 200 µM (PLpro from SARS-CoV-2 [2]; 0.5 h, inhibitor 200.00 uM): 40.8%
- IC50 (PLpro from SARS-CoV-2 [2]): 100 µM
- half-life [7]: 41 min
- microsomal CLint [7]: 171 µL/min/mg
- half-life [8]: > 60 min
- microsomal CLint [8]: < 38.5 µL/min/mg
- half-life [9]: 18 min
- microsomal CLint [9]: 128 µL/min/mg
- EC50 [10]: 10 µM
- half-life [11]: 17 min
- microsomal CLint [11]: 138 µL/min/mg
- inhibition ([4]; [inhibitor] 2.08 uM, 2.08 µM): 7.39%
- inhibition ([4]; [inhibitor] 16.65 uM, 16.65 µM): 5.25%
- viability at 48 h, 2.08 µM (in vitro): 100%
- viability at 48 h, 8.33 µM (in vitro): 95.2%
- viability at 48 h, 16.65 µM (in vitro): 95.7%
